Entries after “also recorded” stand apart in the source; their conditions may differ. Like-named read-outs stand apart in the source and are kept apart here.
Tests used:
human skin equivalents = conditions: Carpenter et al. 2018; cited from earlier work
UV spectra = type: physicochemical; conditions: UV spectrum
UVB absorption assay = type: physicochemical; conditions: for UVB absorption: time needed to reach a 5 mJ/cm^2 dose: in ethanol, 1, 10, 25, 50 μM
Experimental: MBITC or MBA was diluted in ethanol at 0, 1, 10, 25, and 50 μM, added to separate wells of a 24-well plate (Corning, Corning, NY, USA), and irradiated with UVB light using a UV Transilluminator 2000 (Bio-Rad, Hercules, CA, USA) to reach 5 mJ/cm^2 or 10 mJ/cm^2. A Daavlin X-96 irradiance meter (Daavlin, Bryan, OH, USA) measured energy transmittance through the dish. Each well was separately irradiated, and the time was measured to reach the specified energy density.

HaCaT cells [1] = assay: UV protection dose-response MTS assay; type: cell-based, human
Experimental: (§1) Immortalized keratinocyte HaCaT cells (ATCC, Manassas, VA, USA) were cultured in DMEM supplemented with 5% fetal bovine serum. Human primary epidermal keratinocytes (HPEKs) (ATCC) were cultured in EpiLife medium (ThermoFisher Scientific) supplemented with Human Keratinocyte Growth Supplement (ThermoFisher Scientific). HPEKs were maintained below ten passages. Cell lines were incubated in a humidified environment at 37° C. with 5% CO2.
For UV protection dose-response assays, HaCaT cells were seeded 5000 cells/well into clear 96-well plates (Corning). After 24 h, cells were treated with MBITC or MBA at 0, 3.125, 6.25, 12.5, 25, or 50 µM and incubated for 12 h. Cells were washed in PBS and irradiated with 10 mJ/cm^2 UVB using a UV Transilluminator 2000. After irradiation, fresh media was added, cells incubated for 36 h, and viability was determined by MTS assay as before. HPEKs were seeded 5000 cells/well into black, opaque bottom 96-well plates (Greiner Bio-One, Monroe, NC, USA) and incubated for 48 h. Afterward, cells were treated with vehicle control or a 10-point half-log serial dilution of MBITC or MBA starting at 50 μM and incubated for 12 h. Before irradiation, the conditioned cell culture medium was re-moved from each well, retained, and PBS containing the same dose of EtOH or the compounds was added to the wells. Cells were irradiated with a 10 mJ/cm^2 dose using UVB TL 20W/12 RS M3 lights (Philips, Amsterdam, Netherlands). The dose of UVB was quantified using an IL1400A NIST Traceable Photometer (International Light, Peabody, MA, USA). Following irradiation, the PBS was aspirated from the wells, and conditioned media was added. After 36 h, CYQUANT® (ThermoFisher Scientific) assays were performed per the manufacturer's instructions, and fluorescent signal read using a Synergy4® (Biotek, Winooski, VT) plate reader. Cell counts were extrapolated from a standard curve of fluorescent signal activity vs. HPEK cell counts. Time kinetics involved the same compound and UVB treatment scheme as before, but CYQUANT® assays were performed at 24, 48, 72, or 96 h post-UVB irradiation.

p-γH2A.X in HPEKs = assay: Immunoblotting for p-γH2A.X after UVB; type: cell-based, human; conditions: 5 mJ/cm^2 UVB; for p-γH2A.X reduction: 1 μM (lowest tested dose); for p-γH2A.X staining: 25 and 50 μM (higher concentrations)
Experimental: HPEKs were cultured to 80% confluence in 6-well plates and treated with ethanol vehicle control or MBA. Cells were then irradiated in the same manner as immunocytochemistry samples. After 36 h, cells were harvested by scraping into cold PBS, centrifuged, pellet resuspended in denaturing SDS lysis buffer, boiled, and sonicated as described previously (Carpenter et al., Mol Carcinog 2019, 58:1680-1690). Samples were normalized to protein content as determined by BCA Assay (ThermoFisher Scientific). SDS-PAGE was then performed using 10% gels and transferred to a 0.45 μm nitrocellulose membrane (GE Healthcare, Chicago, IL, USA). Blots were blocked for 1 h in 5% nonfat dry milk in TBS-T and incubated with α-p-γH2A.X antibody (1:1000, Cell Signaling Technology, Danvers, MA, USA) or Actin (1:2000, Bethyl Laboratories, Inc., Montgomery, TX, USA) in 5% bovine serum albumin in TBS-T overnight at 4° C. The next day, blots were incubated with HRP-conjugated Goat anti-rabbit IgG or Goat anti-mouse IgG secondary antibodies (1:2000, Calbiochem, San Diego, CA, USA) for 1 h. The immunoblots were developed using chemiluminescent reagents (GE Healthcare) and imaged with a MyECL imager (ThermoFisher Scientific).

HPEKs = conditions: previous study, absence of UVB; cited from earlier work
[2] = test system: human primary epidermal keratinocytes (HPEKs); assay: UV protection CyQuant cell count assay (dose-response and time kinetics); type: cell-based; conditions: 10 mJ/cm^2 UVB
Experimental: as §1
For UV protection dose-response assays, HaCaT cells were seeded 5000 cells/well into clear 96-well plates (Corning). After 24 h, cells were treated with MBITC or MBA at 0, 3.125, 6.25, 12.5, 25, or 50 µM and incubated for 12 h. Cells were washed in PBS and irradiated with 10 mJ/cm^2 UVB using a UV Transilluminator 2000. After irradiation, fresh media was added, cells incubated for 36 h, and viability was determined by MTS assay as before. HPEKs were seeded 5000 cells/well into black, opaque bottom 96-well plates (Greiner Bio-One, Monroe, NC, USA) and incubated for 48 h. […] The dose of UVB was quantified using an IL1400A NIST Traceable Photometer (International Light, Peabody, MA, USA). […] After 36 h, CYQUANT® (ThermoFisher Scientific) assays were performed per the manufacturer's instructions, and fluorescent signal read using a Synergy4® (Biotek, Winooski, VT) plate reader. […]

[3] = test system: cyclobutane pyrimidine dimers (CPDs) in HPEKs; assay: Immunocytochemistry for cyclobutane pyrimidine dimers after UVB; type: cell-based, human; conditions: 12 h treatment, 5 mJ/cm^2 UVB
Experimental: HPEKs were cultured to 80% confluence in 6-well plates containing gelatin-coated coverslips and treated with ethanol vehicle control or MBA. After 12 h, the conditioned cell culture medium was removed, retained, and PBS containing EtOH or MBA was added to each well. Plates were then irradiated with 5 mJ/cm^2 UVB, PBS removed, conditioned media re-added, and incubated for 24 h. Cells were then fixed in 75% methanol/25% acetic acid, washed with 70% EtOH, and DNA denatured in 70 mM NaOH (in 70% EtOH). Wells were then washed 3 times with PBS and denaturation quenched with 100 mM Tris —HCl (in 70% EtOH). Cells were then blocked with 10% normal goat serum (NGS) in PBS-T and incubated overnight at 4° C. with α-thymine dimer primary antibody (1:1000, Kamiya Bio-medical, Matsumoto, Nagano, Japan) in NGS blocking buffer. […] Corrected total cellular fluorescence (CTCF) was quantified using the ImageJ software package as described previously, except only nuclear CTCF for CPD staining was quantified and nuclei were selected for ROIs using manual thresholding for each field (Carpenter et al., J Invest Dermatol 2022, 142:1903-1911). For all quantifications, cells on the edges of each field were excluded.

HaCaT cells [4] = assay: Dose-response MTS viability assay without UVB; type: cell-based, human; conditions: 48 h, 3.125-50 μM, absence of UVB irradiation
Experimental: as §1
(§2) For viability studies, HaCaT cells were seeded 5000 cells/well in clear 96-well plates (Corning, Corning, NY, USA). After 24 h, cells were treated with MBITC or MBA at 0, 3.125, 6.25, 12.5, 25, or 50 μM and incubated with the compounds for 48 h. Viability was then determined by MTS assay using CellTiter 96® AQueous One Solution Cell Proliferation Assay (Promega Corporation, Madison, WI, USA). Absorption was measured using Cytation® 5.0 Imaging Reader (Agilent, Santa Clara, CA, USA). HPEKs were seeded 5000 cells/well into white, opaque bottom 96-well plates (Greiner Bio-One) and incubated for 48 h. HPEKs were then treated with ethanol vehicle control or a 5-point half-log serial dilution of MBA starting at 50 μM. After 48 h, CellTiter-Glo® (Promega Corporation, Madison, WI) viability assays were performed per the manufacturer's instructions, and luminescence was read using a Synergy4 (Biotek, Winooski, VT) plate reader.

Solubility = type: physicochemical
[5] = test system: human primary epidermal keratinocytes (HPEKs); assay: Dose-response CellTiter-Glo viability assay without UVB; type: cell-based; conditions: 48 h, up to 50 μM, absence of UVB
Experimental: as §1, §2

[6] = HaCaT, 12 h treatment, 10 mJ/cm^2 UVB, MTS after 36 h

Row | SMILES | UVB-induced DNA damage, proliferation, and matrix-metalloproteinase expression (human skin equivalents) | λmax (UV spectra) [nm] | UVB absorption: time needed to reach a 5 mJ/cm^2 dose (UVB absorption assay) | UVB absorption capacity, compared (UVB absorption assay; time needed to reach 5 or 10 mJ/cm^2) | cytotoxic effects in the presence of UVB light (HaCaT cells [1]) | protection from UVB-induced loss in proliferation (HaCaT cells [1]; [6]) | p-γH2A.X reduction (p-γH2A.X in HPEKs) | p-γH2A.X staining (p-γH2A.X in HPEKs) | cytotoxic effects in HPEKs (HPEKs) | protective effect, time kinetics ([2]; incubation up to four days) | prevention of UV-induced loss in proliferation (dose-response) ([2]; 12 h treatment, CyQuant) | intensity of the CPD staining (CTCF) [3] | total number of CPD+ cells vs vehicle control [3] | cytotoxicity (viability, MTS) (HaCaT cells [4]) | cytotoxic effects in the presence of UVB light (HaCaT cells [1]; [6]) | solubility in ethanol (Solubility) | cytotoxicity (viability, CellTiter-Glo) [5]
1 | COc1cccc(CN=C=S)c1 [MBITC, 3-methoxybenzyl isothiocyanate] | reduce | 273 | sufficient to increase the time needed to reach a 5 mJ/cm^2 dose at every tested concentration except 50 μM, where the time significantly decreased | more UVB absorption capacity than MBA | displayed cytotoxic effects in the presence of UVB light | did not reverse the loss of proliferation | less reduction; also recorded: trend of reduced p-γH2A.X | trend of increased p-γH2A.X staining compared to MBA | exhibited cytotoxic effects | – | – | – | – | – | – | – | –
2 | COc1cccc(CCC#N)c1 [MPACN, 3-methoxybenzyl acetonitrile] | reduce | – | – | – | – | – | – | – | – | – | – | – | – | – | – | – | –
3 | CCCCCCCCCCCCCC/C=C\CCCC(=O)NCc1cccc(OC)c1 [MBA, (Z)—N-(3-methoxybenzyl)eicos-5-enamide] | – | 273 | only showed similar activity at a single concentration of 25 μM | – | – | – | trend of reduced p-γH2A.X | lack of elevated p-γH2A.X | – | did not reveal a protective effect | had the same effect as in HaCaT cells | substantially decreased | small but significant difference | little to no effect | did not exhibit the same cytotoxic effects as the parental compound | ethanol soluble | not cytotoxic at the tested doses

Source: patent US20250228757A1, “SUNSCREEN COMPOUNDS AND FORMULATIONS” (Oregon State University, priority 2024, published 2025)
